Series [1] can be described thus: Tolerability in Sprague-Dawley rats: kidney function (Example 19). The class given is in vivo. The conditions noted are these: Sprague Dawley rats. From the text: (§1) Urine samples were taken before the start of treatment.
Series [2] concerns human Factor XI mRNA. The series can be described thus: Dose-dependent inhibition in cyno primary hepatocytes, electroporation (Example 6). The class given is cell-based, cynomolgus monkey. Conditions: approx. 16 h. The procedure: Cells were plated at a density of 35,000 cells per well and transfected via electroporation with 0.74 nM, 2.2 nM, 6.7 nM, 20 nM, 60 nM, and 180 nM concentrations of antisense oligonucleotide, as specified in Table 13. After a treatment period of approximately 16 hours, RNA was isolated from the cells and human Factor XI mRNA levels were measured by quantitative real-time PCR. Human Factor XI primer probe set RTS 2966 was used to measure mRNA levels. Factor XI mRNA levels were adjusted according to total RNA content, as measured by RIBOGREEN®. Results are presented as percent inhibition of human Factor XI, relative to untreated control cells.

The nature of series [3]: Tolerability in Sprague-Dawley rats: body and organ weight (Example 19). The class given is in vivo. The conditions noted are these: 50 mg/kg s.c. twice per week for 6 weeks, change over weight at start of study.
From the text: as §1
The body weights are presented in Table 78 and are expressed as a percent change over the weights taken at the start of the study.

Series [4] concerns human Factor XI mRNA. The series can be described thus: Dose-dependent inhibition in HepG2 cells, lipofectin (Example 4). The class given is cell-based. Conditions: 16 hours. In short, it runs like this: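 Read-out was percent inhibition of Factor XI mRNA relative to untreated controls, by qRT-PCR (RTS 2966) adjusted for RIBOGREEN-measured total RNA. Cells received antisense oligonucleotide at 9.375 to 75 nM (four levels) via lipofectin. Treatment lasted approximately 16 hours, with plating at 10,000 cells per well.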

In series [5] the test system is human Factor XI mRNA. The series can be described thus: Antisense inhibition in HepG2 cells by microwalk gapmers, 8,000 nM, electroporation (Example 14). The class given is cell-based. The conditions noted are these: HepG2 cells, 8,000 nM. In outline: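 Percent reduction of Factor XI transcript, relative to untreated controls, by real-time PCR with RIBOGREEN normalisation. Readout taken about 24 h after electroporating HepG2 cells with 8,000 nM oligonucleotide. Gapmers are 5-10-5, 5-8-5 or 6-8-6 MOE wings, phosphorothioate backbone.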

In the case of “416864 (antisense GGCAGCGGACGGCATTGGTG; 5-10-5 gapmer, wing sugar chemistry not given here, further chemistry not given here) [compound 416864]”, in series [1] (after 50 mg/kg s.c. twice per week for 6 weeks), the “urine protein/creatinine ratio, After” value is 4.0. For the same substance, the “urine protein/creatinine ratio, Before” value in series [1] (before antisense oligonucleotide treatment) is listed as 1.2. Besides, the “percent inhibition of human Factor XI mRNA” value with human Factor XI mRNA [2] (0.74 nM) came out at 0%; in the series with human Factor XI mRNA [2] (2.2 nM), 1%; in the series on human Factor XI mRNA [2] (6.7 nM), 15%; in the series on human Factor XI mRNA [2] (20 nM), 23%; in the series on human Factor XI mRNA [2] (60 nM) it was 47%; in the series with human Factor XI mRNA [2] (180 nM) it was 64%. Moreover, the “Percent change in Body weight” value in series [3] was −24%. Also, the “percent inhibition of Factor XI mRNA, relative to untreated control cells” value worked out at 18% in the series with human Factor XI mRNA [4] (9.375 nM), 43% in the series on human Factor XI mRNA [4] (18.75 nM), 62% in the series on human Factor XI mRNA [4] (37.5 nM) and 78% in the series with human Factor XI mRNA [4] (75 nM). Further, the “Percent inhibition of human Factor XI mRNA levels” value in the series with human Factor XI mRNA [5] is on record as 88%.

These data come from US20120083522A1, “MODULATION OF INFLAMMATORY RESPONSES BY FACTOR XI” (Isis Pharmaceuitcals, inc., priority 2009, published 2012).
